In patent publication US8318746B2, “Nitrogen-containing five-membered heterocyclic compound” (Takeda Pharmaceutical Company Limited, priority 2007, dated 2012):
Where a name gives a salt, the structure may show the parent alone.

melting point | SMILES
114 to 116 °C | O=C(c1ccc(-c2ccc(C(CC3CCOCC3)c3ccc(S(=O)(=O)C4CC4)cc3)[nH]2)nc1)N1CCOCC1 (stereo not drawn) [Example 121, 5-(morpholin-4-ylcarbonyl)-2-(5-[1-[4-(cyclopropylsulfonyl)phenyl]-2-(tetrahydro-2H-pyran-4-yl)ethyl]-1H-pyrrol-2-yl)pyridine]
208.5 to 208.6 °C | O=S(=O)(c1ccc(C(CC2CCOCC2)c2ccc(-c3nnc(CO)s3)[nH]2)cc1)C1CC1 (stereo not drawn) [Example 206, [5-(5-{1-[4-(cyclopropylsulfonyl)phenyl]-2-(tetrahydro-2H-pyran-4-yl)ethyl}-1H-pyrrol-2-yl)-1,3,4-thiadiazol-2-yl]methanol]
112 to 114 °C | CC(O)c1cnc(-c2ccc(C(CC3CCOCC3)c3ccc(S(=O)(=O)C4CC4)cc3)[nH]2)s1 (stereo not drawn) [Example 167, Optically Active form of 1-[2-(5-{1-[4-(cyclopropylsulfonyl)phenyl]-2-(tetrahydro-2H-pyran-4-yl)ethyl}-1H-pyrrol-2-yl)-1,3-thiazol-5-yl]ethanol]
151 to 153 °C | NC(=O)Cc1ccc(-c2ccc(C(CC3CCOCC3)c3ccc(S(=O)(=O)C4CC4)cc3)[nH]2)nc1 (stereo not drawn) [Example 132, 2-[6-(5-{1-[4-(cyclopropylsulfonyl)phenyl]-2-(tetrahydro-2H-pyran-4-yl)ethyl}-1H-pyrrol-2-yl)pyridin-3-yl]acetamide]
124 to 127 °C | O=C(O)Cc1ccc(-c2ccc(C(CC3CCOCC3)c3ccc(S(=O)(=O)C4CC4)cc3)[nH]2)nc1 (stereo not drawn) [Example 129, [6-(5-{1-[4-(cyclopropylsulfonyl)phenyl]-2-(tetrahydro-2H-pyran-4-yl)ethyl}-1H-pyrrol-2-yl)pyridin-3-yl]acetic acid]
109 to 110 °C | O=C(c1ccc(-c2ccc(C(CC3CCOCC3)c3ccc(S(=O)(=O)C4CC4)cc3)[nH]2)nc1)N1CCC1 (stereo not drawn) [Example 120]
139 to 141 °C | N#CCc1ccc(-c2ccc(C(CC3CCOCC3)c3ccc(S(=O)(=O)C4CC4)cc3)[nH]2)nc1 (stereo not drawn) [Example 128, [6-(5-{1-[4-(cyclopropylsulfonyl)phenyl]-2-(tetrahydro-2H-pyran-4-yl)ethyl}-1H-pyrrol-2-yl)pyridin-3-yl]acetonitrile]
138 to 140 °C | CC(C)(O)C(O)c1ccc(-c2ccc(C(CC3CCOCC3)c3ccc(S(C)(=O)=O)c(Cl)c3)[nH]2)nc1 (stereo not drawn) [Example 133, 1-[6-(5-{1-[3-chloro-4-(methylsulfonyl)phenyl]-2-(tetrahydro-2H-pyran-4-yl)ethyl}-1H-pyrrol-2-yl)pyridin-3-yl]-2-methylpropane-1,2-diol]
202 to 203 °C | O=C(Cc1ccc(-c2ccc(C(CC3CCOCC3)c3ccc(S(=O)(=O)C4CC4)cc3)[nH]2)nc1)N1CCOCC1 (stereo not drawn) [Example 130, 4-{[6-(5-{1-[4-(cyclopropylsulfonyl)phenyl]-2-(tetrahydro-2H-pyran-4-yl)ethyl}-1H-pyrrol-2-yl)pyridin-3-yl]acetyl}morpholine]
241 to 243 °C | NC(=O)c1cc(-c2nccs2)[nH]c1C(CC1CCOCC1)c1ccc(S(=O)(=O)C2CC2)cc1 (stereo not drawn) [Example 106, 2-{1-[4-(cyclopropylsulfonyl)phenyl]-2-(tetrahydro-2H-pyran-4-yl)ethyl}-5-(1,3-thiazol-2-yl)-1H-pyrrole-3-carboxamide]
110 to 112 °C | CC(C)(O)COc1ccc(-c2ccc(C(CC3CCOCC3)c3ccc(S(=O)(=O)C4CC4)cc3)[nH]2)nc1 (stereo not drawn) [Example 116, 1-{[6-(5-{1-[4-(cyclopropylsulfonyl)phenyl]-2-(tetrahydro-2H-pyran-4-yl)ethyl}-1H-pyrrol-2-yl)pyridin-3-yl]oxy}-2-methylpropan-2-ol]
178 to 179 °C | CCOC(=O)c1cc(-c2nccs2)[nH]c1C(CC1CCOCC1)c1ccc(S(=O)(=O)C2CC2)cc1 (stereo not drawn) [Example 103, Ethyl 2-{1-[4-(cyclopropylsulfonyl)phenyl]-2-(tetrahydro-2H-pyran-4-yl)ethyl}-5-(1,3-thiazol-2-yl)-1H-pyrrole-3-carboxylate]
89 to 90 °C | CS(=O)(=O)c1ccc(C(CC2CCOCC2)c2ccc(-c3ccccn3)[nH]2)cn1 (stereo not drawn) [Example 137, 2-(methylsulfonyl)-5-[1-(5-(pyridin-2-yl)-1H-pyrrol-2-yl)-2-(tetrahydro-2H-pyran-4-yl)ethyl]pyridine]
114 to 116 °C | CC(C)=Cc1ccc(-c2ccc(C(CC3CCOCC3)c3ccc(S(=O)(=O)C4CC4)cc3)[nH]2)nc1 (stereo not drawn) [Example 126, 2-(5-{1-[4-(cyclopropylsulfonyl)phenyl]-2-(tetrahydro-2H-pyran-4-yl)ethyl}-1H-pyrrol-2-yl)-5-(2-methylprop-1-en-1-yl)pyridine]
136 to 138 °C | NC(=O)c1ccc(-c2ccc(C(CC3CCOCC3)c3ccc(S(=O)(=O)C4CC4)cc3)[nH]2)nc1 (stereo not drawn) [Example 124, 6-(5-{1-[4-(cyclopropylsulfonyl)phenyl]-2-(tetrahydro-2H-pyran-4-yl)ethyl}-1H-pyrrol-2-yl)pyridine-3-carboxamide]
175 to 176 °C | O=Cc1cnc(-c2ccc(C(CC3CCOCC3)c3ccc(S(=O)(=O)C4CC4)cc3)[nH]2)s1 (stereo not drawn) [Example 158, 2-(5-{1-[4-(cyclopropylsulfonyl)phenyl]-2-(tetrahydro-2H-pyran-4-yl)ethyl}-1H-pyrrol-2-yl)-1,3-thiazole-5-carbaldehyde]
114 to 116 °C | N#Cc1cc(-c2nccs2)[nH]c1C(CC1CCOCC1)c1ccc(S(=O)(=O)C2CC2)cc1 (stereo not drawn) [Example 107, 2-{1-[4-(cyclopropylsulfonyl)phenyl]-2-(tetrahydro-2H-pyran-4-yl)ethyl}-5-(1,3-thiazol-2-yl)-1H-pyrrole-3-carbonitrile]
150 to 152 °C | COC(=O)c1ccc(-c2ccc(C(CC3CCOCC3)c3ccc(S(=O)(=O)C4CC4)cc3)[nH]2)nc1 (stereo not drawn) [Example 118, Methyl 6-(5-{1-[4-(cyclopropylsulfonyl)phenyl]-2-(tetrahydro-2H-pyran-4-yl)ethyl}-1H-pyrrol-2-yl)pyridine-3-carboxylate]
116 to 118 °C | CC(O)COc1ccc(-c2ccc(C(CC3CCOCC3)c3ccc(S(=O)(=O)C4CC4)cc3)[nH]2)nc1 (stereo not drawn) [Example 117, 1-{[6-(5-{1-[4-(cyclopropylsulfonyl)phenyl]-2-(tetrahydro-2H-pyran-4-yl)ethyl}-1H-pyrrol-2-yl)pyridin-3-yl]oxy}propan-2-ol]
112 to 114 °C | CC(C)(O)c1ccc(-c2ccc(C(CC3CCOCC3)c3ccc(S(=O)(=O)C4CC4)cc3)[nH]2)nc1 (stereo not drawn) [Example 125, 2-[6-(5-{1-[4-(cyclopropylsulfonyl)phenyl]-2-(tetrahydro-2H-pyran-4-yl)ethyl}-1H-pyrrol-2-yl)pyridin-3-yl]propan-2-ol]
165 to 167 °C | O=C1CC[C@H](CC(c2ccc(S(=O)(=O)C3CC3)cc2)c2ccc(-c3nccs3)[nH]2)C1 (stereo partly drawn) [Example 102, (3R)-3-{2-[4-(cyclopropylsulfonyl)phenyl]-2-[5-(1,3-thiazol-2-yl)-1H-pyrrol-2-yl]ethyl}cyclopentanone]
126 to 128 °C | CC(C)(O)CNC(=O)c1ccc(-c2ccc(C(CC3CCOCC3)c3ccc(S(=O)(=O)C4CC4)cc3)[nH]2)nc1 (stereo not drawn) [Example 123, 6-(5-[1-[4-(cyclopropylsulfonyl)phenyl]-2-(tetrahydro-2H-pyran-4-yl)ethyl]-1H-pyrrol-2-yl)-N-(2-hydroxy-2-methylpropyl)pyridine-3-carboxamide]
87 to 90 °C | CCOCCNC(=O)c1ccc(-c2ccc(C(CC3CCOCC3)c3ccc(S(=O)(=O)C4CC4)cc3)[nH]2)nc1 (stereo not drawn) [Example 122, 6-(5-{1-[4-(cyclopropylsulfonyl)phenyl]-2-(tetrahydro-2H-pyran-4-yl)ethyl}-1H-pyrrol-2-yl)-N-(2-ethoxyethyl)pyridine-3-carboxamide]
120 to 122 °C | COC(=O)Nc1cc(-c2nccs2)[nH]c1C(CC1CCOCC1)c1ccc(S(=O)(=O)C2CC2)cc1 (stereo not drawn) [Example 181, Methyl [2-{1-[4-(cyclopropylsulfonyl)phenyl]-2-(tetrahydro-2H-pyran-4-yl)ethyl}-5-(1,3-thiazol-2-yl)-1H-pyrrol-3-yl]carbamate]
106 to 109 °C | CS(=O)(=O)c1ccc(C(CC2CCOCC2)c2cnc(-c3ccccn3)[nH]2)cc1Cl (stereo not drawn) [Example 183, 2-(5-{1-[3-chloro-4-(methylsulfonyl)phenyl]-2-(tetrahydro-2H-pyran-4-yl)ethyl}-1H-imidazol-2-yl)pyridine]
147 to 148 °C | CC(c1cnc(-c2ccc(C(CC3CCOCC3)c3ccc(S(=O)(=O)C4CC4)cc3)[nH]2)s1)N(C)C (stereo not drawn) (as salt: hydrochloride) [Example 157, 1-[2-(5-{1-[4-(cyclopropylsulfonyl)phenyl]-2-(tetrahydro-2H-pyran-4-yl)ethyl}-1H-pyrrol-2-yl)-1,3-thiazol-5-yl]-N,N-dimethylethanamine dihydrochloride]
180 to 182 °C | CN(C)C(=O)c1cc(-c2nccs2)[nH]c1C(CC1CCOCC1)c1ccc(S(=O)(=O)C2CC2)cc1 (stereo not drawn) [Example 105, 2-{1-[4-(cyclopropylsulfonyl)phenyl]-2-(tetrahydro-2H-pyran-4-yl)ethyl}-N,N-dimethyl-5-(1,3-thiazol-2-yl)-1H-pyrrole-3-carboxamide]
134 to 136 °C | O=C(NC1CC1)c1ccc(-c2ccc(C(CC3CCOCC3)c3ccc(S(=O)(=O)C4CC4)cc3)[nH]2)nc1 (stereo not drawn) [Example 119, N-cyclopropyl-6-(5-{1-[4-(cyclopropylsulfonyl)phenyl]-2-(tetrahydro-2H-pyran-4-yl)ethyl}-1H-pyrrol-2-yl)pyridine-3-carboxamide]
246 to 247 °C (dec.) | O=C(O)Cc1cnc(-c2ccc(C(CC3CCOCC3)c3ccc(S(=O)(=O)C4CC4)cc3)[nH]2)s1 (stereo not drawn) [Example 149, [2-(5-{1-[4-(cyclopropylsulfonyl)phenyl]-2-(tetrahydro-2H-pyran-4-yl)ethyl}-1H-pyrrol-2-yl)-1,3-thiazol-5-yl]acetic acid]
199 to 201 °C | CS(=O)(=O)c1ccc(C(CC2CCOCC2)c2ccc(-c3nnc(CO)s3)[nH]2)cc1 (stereo not drawn) [Example 221, [5-(5-{1-[4-(methylsulfonyl)phenyl]-2-(tetrahydro-2H-pyran-4-yl)ethyl}-1H-pyrrol-2-yl)-1,3,4-thiadiazol-2-yl]methanol]
